# Target: T1, human PLK1 (Homo sapiens, UniProt P53350)
# T1 construct: FLAG (DYKDDDDK) (N); made in house; host or cells: Sf21 insect cells, recombinant baculovirus (pFASTBAC1, Bac-to-Bac)
# Assay: PLK1 in vitro enzymatic activity assay (phosphorylation of alpha casein by recombinant PLK1)
# Format: biochemical
# Conditions: recombinant FLAG-tagged PLK1, alpha casein substrate, 500 nmol/L ATP, 40 min at room temperature; read-out: pIC50 (PLK1) (converted)
# Procedure, shortened: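 Recombinant PLK1 from baculovirus-infected Sf21 cells (50 ng) phosphorylated 3 μg alpha casein for 40 min at room temperature in HEPES pH 7.5, Mg acetate, DTT buffer with 500 nmol/L ATP plus [γ-32P]ATP. TCA-precipitated phosphoprotein was filter-captured, washed, and counted by scintillation.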
# T1 sequence (P53350 with tags, fused parts or gaps): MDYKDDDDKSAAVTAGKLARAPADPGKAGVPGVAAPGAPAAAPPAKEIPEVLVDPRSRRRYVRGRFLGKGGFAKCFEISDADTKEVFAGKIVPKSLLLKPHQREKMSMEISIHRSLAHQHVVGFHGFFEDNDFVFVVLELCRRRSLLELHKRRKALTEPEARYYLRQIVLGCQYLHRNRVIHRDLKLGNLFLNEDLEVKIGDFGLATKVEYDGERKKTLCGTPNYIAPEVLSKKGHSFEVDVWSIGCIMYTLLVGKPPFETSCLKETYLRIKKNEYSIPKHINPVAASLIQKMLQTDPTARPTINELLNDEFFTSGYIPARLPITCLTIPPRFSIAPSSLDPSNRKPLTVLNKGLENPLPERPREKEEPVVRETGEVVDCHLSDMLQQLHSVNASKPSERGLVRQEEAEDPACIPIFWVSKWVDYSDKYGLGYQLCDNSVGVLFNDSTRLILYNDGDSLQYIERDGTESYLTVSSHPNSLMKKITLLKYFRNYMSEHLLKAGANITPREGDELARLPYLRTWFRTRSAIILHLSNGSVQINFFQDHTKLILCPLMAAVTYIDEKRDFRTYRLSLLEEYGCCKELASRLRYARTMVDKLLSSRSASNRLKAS
row,SMILES,IC50 [nM]
1,"COc1cc(C(=O)NC2CCN(C)CC2)ccc1Nc1ncc2c(n1)N(C1CCCC1)CC(F)(F)CN2C [Compound 138, 4-(9-cyclopentyl-7,7-difluoro-5-methyl-6,7,8,9-tetrahydro-5H-pyrimido[4,5-b][1,4]diazepin-2-ylamino)-3-methoxy-N-(1-methylpiperidin-4-yl)benzamide]",> 2
2,"COc1cc(C(N)=O)ccc1Nc1ncc2c(n1)N(C1CCCCC1)CC(F)(F)C(=O)N2C [Compound 58, 4-(9-cyclohexyl-7,7-difluoro-5-methyl-6-oxo-6,7,8,9-tetrahydro-5H-pyrimido[4,5-b][1,4]diazepin-2-ylamino)-3-methoxybenzamide]",≤ 2
3,"COc1cc(C(=O)NC2CC2)ccc1Nc1ncc2c(n1)N(C1CCCC1)CC(F)(F)C(=O)N2C [Compound 2, 4-(9-cyclopentyl-7,7-difluoro-5-methyl-6-oxo-6,7,8,9-tetrahydro-5H-pyrimido[4,5-b][1,4]diazepin-2-ylamino)-N-cyclopropyl-3-methoxybenzamide]",> 2
4,"COc1cc(C(=O)NN2CCCC2)ccc1Nc1ncc2c(n1)N(C1CCCCC1)CC(F)(F)C(=O)N2C [Compound 67, 4-(9-cyclohexyl-7,7-difluoro-5-methyl-6-oxo-6,7,8,9-tetrahydro-5H-pyrimido[4,5-b][1,4]diazepin-2-ylamino)-3-methoxy-N-(pyrrolidin-1-yl)benzamide]",≤ 2
5,"COc1cc(C(=O)N[C@@H]2CCCNC2)c(F)cc1Nc1ncc2c(n1)N(C1CCCC1)CC(F)(F)C(=O)N2C [Compound 119, (R)-4-(9-cyclopentyl-7,7-difluoro-5-methyl-6-oxo-6,7,8,9-tetrahydro-5H-pyrimido[4,5-b][1,4]diazepin-2-ylamino)-2-fluoro-5-methoxy-N-(piperidin-3-yl)benzamide]",> 2
6,"C=CC1(F)CN(C2CCCC2)c2nc(Nc3ccc(C(=O)NC4CN(C)C4)cc3OC)ncc2N(C)C1=O (centres unmarked) [Compound 100, 4-(9-cyclopentyl-7-fluoro-5-methyl-6-oxo-7-vinyl-6,7,8,9-tetrahydro-5H-pyrimido[4,5-b][1,4]diazepin-2-ylamino)-3-methoxy-N-(1-methylazetidin-3-yl)benzamide]",≤ 2
7,"COc1cc(C(=O)NN(C)C)ccc1Nc1ncc2c(n1)N(C1CCCCC1)CC(F)(F)C(=O)N2C [Compound 61, 4-(9-cyclohexyl-7,7-difluoro-5-methyl-6-oxo-6,7,8,9-tetrahydro-5H-pyrimido[4,5-b][1,4]diazepin-2-ylamino)-3-methoxy-N′,N′-dimethylbenzohydrazide]",≤ 2
8,"COc1cc(C(=O)NC2CCN(C)CC2)ccc1Nc1ncc2c(n1)N(C1CCCC1)CC(F)C(=O)N2C (centres unmarked) [Compound 84, 4-(9-cyclopentyl-7-fluoro-5-methyl-6-oxo-6,7,8,9-tetrahydro-5H-pyrimido[4,5-b][1,4]diazepin-2-ylamino)-3-methoxy-N-(1-methylpiperidin-4-yl)benzamide]",≤ 2
9,"COc1cc(C(=O)N[C@@H]2CCCC[C@@H]2O)ccc1Nc1ncc2c(n1)N(C1CCCCC1)CC(F)(F)C(=O)N2C (racemic) [Compound 47, 4-(9-cyclohexyl-7,7-difluoro-5-methyl-6-oxo-6,7,8,9-tetrahydro-5H-pyrimido[4,5-b][1,4]diazepin-2-ylamino)-N-((cis)-2-hydroxycyclohexyl)-3-methoxybenzamide]",≤ 2
10,"C=C[C@@]1(F)CN(C2CCCC2)c2nc(Nc3ccc(C(=O)NC4CCN(CCOP(=O)(O)O)CC4)cc3OC)ncc2N(C)C1=O [Compound 111, (R)-2-(4-(4-(9-cyclopentyl-7-fluoro-5-methyl-6-oxo-7-vinyl-6,7,8,9-tetrahydro-5H-pyrimido[4,5-b][1,4]diazepin-2-ylamino)-3-methoxybenzamido)piperidin-1-yl)ethyl dihydrogen phosphate]",≤ 2
11,"COc1cc(C(=O)NN2CCNCC2)ccc1Nc1ncc2c(n1)N(C1CCCCC1)CC(F)(F)C(=O)N2C [Compound 77, 4-(9-cyclohexyl-7,7-difluoro-5-methyl-6-oxo-6,7,8,9-tetrahydro-5H-pyrimido[4,5-b][1,4]diazepin-2-ylamino)-3-methoxy-N-(piperazin-1-yl)benzamide]",≤ 2
12,"CCN1CCC(NC(=O)c2ccc(Nc3ncc4c(n3)N(C3CCCCC3)CC(F)(F)C(=O)N4C)c(OC)c2)CC1 [Compound 36, 4-(9-cyclohexyl-7,7-difluoro-5-methyl-6-oxo-6,7,8,9-tetrahydro-5H-pyrimido[4,5-b][1,4]diazepin-2-ylamino)-N-(1-ethylpiperidin-4-yl)-3-methoxybenzamide]",≤ 2
13,"COc1cc(C(=O)NN2CCN(CC3CC3)CC2)ccc1Nc1ncc2c(n1)N(C1CCCCC1)CC(F)(F)C(=O)N2C [Compound 80, 4-(9-cyclohexyl-7,7-difluoro-5-methyl-6-oxo-6,7,8,9-tetrahydro-5H-pyrimido[4,5-b][1,4]diazepin-2-ylamino)-N-(4-(cyclopropylmethyl)piperazin-1-yl)-3-methoxybenzamidemethoxybenzamide]",≤ 2
14,"COc1cc(C(=O)NN2CCN(C)CC2)ccc1Nc1ncc2c(n1)N(C1CCCCC1)CC(F)(F)C(=O)N2C [Compound 34, 4-(9-cyclohexyl-7,7-difluoro-5-methyl-6-oxo-6,7,8,9-tetrahydro-5H-pyrimido[4,5-b][1,4]diazepin-2-ylamino)-3-methoxy-N-(4-methylpiperazin-1-yl)benzamide]",≤ 2
15,COc1cc(C(=O)NC2CCN(CC(N)=O)CC2)ccc1Nc1ncc2c(n1)N(C1CCCC1)CC(F)(F)C(=O)N2C [Compound 114],> 2
16,"COc1cc(C(=O)NC2CN(C(C)C)C2)ccc1Nc1ncc2c(n1)N(C1CCCC1)CC(F)(F)C(=O)N2C [Compound 129, 4-(9-cyclopentyl-7,7-difluoro-5-methyl-6-oxo-6,7,8,9-tetrahydro-5H-pyrimido[4,5-b][1,4]diazepin-2-ylamino)-N-(1-isopropylazetidin-3-yl)-3-methoxybenzamide]",≤ 2
17,"COc1cc(C(=O)NC2CCN(C)CC2)ccc1Nc1ncc2c(n1)N(C1CC[C@@H](C)C1)CC(F)(F)C(=O)N2C (stereo partly drawn) [Compound 83, 4-(7,7-difluoro-5-methyl-9-((3R)-3-methylcyclopentyl)-6-oxo-6,7,8,9-tetrahydro-5H-pyrimido[4,5-b][1,4]diazepin-2-ylamino)-3-methoxy-N-(1-methylpiperidin-4-yl)benzamide]",≤ 2
18,"COc1cc(C(=O)NC2CCN(C)CC2)ccc1Nc1ncc2c(n1)N(C1CCCC1)CC(F)(C(F)(F)F)C(=O)N2C (centres unmarked) [Compound 85, 4-(9-cyclopentyl-7-fluoro-5-methyl-6-oxo-7-(trifluoromethyl)-6,7,8,9-tetrahydro-5H-pyrimido[4,5-b][1,4]diazepin-2-ylamino)-3-methoxy-N-(1-methylpiperidin-4-yl)benzamide]",> 2
19,"C=C[C@@]1(F)CN(C2CCCC2)c2nc(Nc3ccc(C(=O)N[C@@H]4CCCNC4)cc3OC)ncc2N(C)C1=O [Compound 107, 4-((R)-9-cyclopentyl-7-fluoro-5-methyl-6-oxo-7-vinyl-6,7,8,9-tetrahydro-5H-pyrimido[4,5-b][1,4]diazepin-2-ylamino)-3-methoxy-N—((R)-piperidin-3-yl)benzamide]",> 2
20,"COc1cc(C(=O)NC2CC3CCC(C2)N3C)ccc1Nc1ncc2c(n1)N(C1CCCCC1)CC(F)(F)C(=O)N2C (centres unmarked) [Compound 51, 4-(9-cyclohexyl-7,7-difluoro-5-methyl-6-oxo-6,7,8,9-tetrahydro-5H-pyrimido[4,5-b][1,4]diazepin-2-ylamino)-3-methoxy-N-(8-methyl-8-azabicyclo[3.2.1]octan-3-yl)benzamide]",≤ 2
21,"COc1cc(C(=O)NC2CCN(C(=O)CN3CCCC3)CC2)ccc1Nc1ncc2c(n1)N(C1CCCC1)CC(F)(F)C(=O)N2C [Compound 12, 4-(9-cyclopentyl-7,7-difluoro-5-methyl-6-oxo-6,7,8,9-tetrahydro-5H-pyrimido[4,5-b][1,4]diazepin-2-ylamino)-3-methoxy-N-(1-(2-(pyrrolidin-1-yl)acetyl)piperidin-4-yl)benzamide]",> 2
22,"COc1cc(C(=O)N[C@H]2CCCNC2)ccc1Nc1ncc2c(n1)N(C1CCCCC1)CC(F)(F)C(=O)N2C [Compound 37, (S)-4-(9-cyclohexyl-7,7-difluoro-5-methyl-6-oxo-6,7,8,9-tetrahydro-5H-pyrimido[4,5-b][1,4]diazepin-2-ylamino)-3-methoxy-N-(piperidin-3-yl)benzamide]",> 2
23,"COc1cc(C(=O)NC2CN(C(C)C)C2)ccc1Nc1ncc2c(n1)N(C1CCCCC1)CC(F)(F)C(=O)N2C [Compound 125, 4-(9-cyclohexyl-7,7-difluoro-5-methyl-6-oxo-6,7,8,9-tetrahydro-5H-pyrimido[4,5-b][1,4]diazepin-2-ylamino)-N-(1-isopropylazetidin-3-yl)-3-methoxybenzamide]",≤ 2
24,"CCN1CCC(NC(=O)c2ccc(Nc3ncc4c(n3)N(C3CCCC3)CC(F)(F)C(=O)N4C)c(OC)c2)CC1 [Compound 7, 4-(9-cyclopentyl-7,7-difluoro-5-methyl-6-oxo-6,7,8,9-tetrahydro-5H-pyrimido[4,5-b][1,4]diazepin-2-ylamino)-N-(1-ethylpiperidin-4-yl)-3-methoxybenzamide]",> 2
25,"C=C[C@@]1(F)CN(C2CCCC2)c2nc(Nc3cc(F)c(C(=O)NC4CCN(C)CC4)cc3OC)ncc2N(C)C1=O [Compound 113, (R)-4-(9-cyclopentyl-7-fluoro-5-methyl-6-oxo-7-vinyl-6,7,8,9-tetrahydro-5H-pyrimido[4,5-b][1,4]diazepin-2-ylamino)-2-fluoro-5-methoxy-N-(1-methylpiperidin-4-yl)benzamide]",≤ 2
26,"COc1cc(C(=O)NC2CCN(CCO)CC2)ccc1Nc1ncc2c(n1)N(C1CCCC1)CC(F)(F)C(=O)N2C [Compound 5, 4-(9-cyclopentyl-7,7-difluoro-5-methyl-6-oxo-6,7,8,9-tetrahydro-5H-pyrimido[4,5-b][1,4]diazepin-2-ylamino)-N-(1-(2-hydroxyethyl)piperidin-4-yl)-3-methoxybenzamide]",≤ 2

# Reference: patent publication US20110201818A1, “POLO-LIKE KINASE INHIBITORS” (TAKEDA PHARMACEUTICAL COMPANY LIMITED, priority 2007, published 2011)
